{"source": "patent US20250144051A1", "about": "“Colchicine for Treating Connective Tissue Disorders” (Khan Sciences, Inc., priority 2023, published 2025)", "format_in_all_cases": "cell-based, human", "key": {"VEGF": {"tested_on": "VEGF", "experiment": "In vitro tendinopathy model, VEGF in tenocyte supernatant (MSD multiplex)", "set-up": "VEGF, % of negative control / increase of VEGF levels compared to negative control: concentration or dose not given beside the values", "protocol": "(§1) In Vitro Tendinopathy Model: The below experiment was conducted on an in vitro tendinopathy model. Cells derived from human tendons (tenocytes) can serve as an in vitro model of tendons. See Miller et al., “MicroRNA29a regulates IL-33-mediated tissue remodelling in tendon disease.” Nat Commun 6, 6774 (2015). Cultured tenocytes can be used to investigate the effects of pro-inflammatory cytokines upon the most basic elements of tendon structure. See Ellis et al., “Defining the profile: Characterizing cytokines in tendon injury to improve clinical therapy.” Journal of Immunology and Regenerative Medicine 16, 100059 (2022). When a tendon is injured, it triggers a local inflammatory response that involves immune cell infiltration and the expression of pro-inflammatory mediators. This inflammatory environment can modify tenocyte physiology, causing them to become activated and pro-inflammatory. Exposing the tenocytes to the pro-inflammatory cytokines TNF-α and IL-1β can mimic the effects of tendon injury. See Smith et al., “Tumour necrosis factor alpha, interleukin 1 beta and interferon gamma have detrimental effects on equine tenocytes that cannot be rescued by IL-1RA or mesenchymal stromal cell-derived factors.” Cell Tissue Res 391, 523-544 (2023).\n(§2) Cell Culture System. Immortalized, healthy, commercially-sourced human tenocyte cells (donor, patellar tendon) were reconstituted, seeded in T-75 flasks coated with bovine collagen I, and were maintained in Tenocyte Growth Medium supplemented with Tenocyte Growth Supplement, FBS, and penicillin/streptomycin. Culture conditions were maintained at 37° C. in a humidified 5% CO2 atmosphere. Cells were seeded at a density of 100,000 cells/well in commercially-sourced 24-well plates that were pre-coated with rat tail tendon collagen I.\n(§3) Treatment Protocol. This study was designed to follow the time-course of collagen production after cytokine exposure to mimic the effects of tendon injury. The time variable was cytokine exposure time (6 hours, 1 day, 3 days, and 5 days). Each of these cytokine exposure time periods was followed by a 24-hour drug treatment period. Inflammatory conditions were induced using a combination of IL-1β (1 nM; 17 ng/ml) and TNF-α (10 ng/ml). Two therapeutic interventions were evaluated. The treatment designated as “treatment A” was colchicine (2 nM). The treatment designated as “treatment B” was colchicine (2 nM) plus pyridoxine (100 μM).\n(§4) Experimental Groups. The treatment groups were as follows: (1) exposed to inflammatory cytokines plus treatment A; (2) exposed to inflammatory cytokines plus treatment B; (3) exposed to inflammatory cytokines (negative control, no drug). Further reference control groups were as follows: (A) treatment A without inflammatory cytokine exposure (drug-only control); (B) treatment B without inflammatory cytokine exposure (drug-only control); (C) healthy control (no inflammatory cytokines, no drug treatment).\n(§5) Sample Collection Times. Samples were collected at the following timepoints after initiation of cytokine exposure: • 6-hour samples: Collection at 30 hours (6 hr cytokine exposure+24 hr drug treatment) • 1-day samples: Collection at 48 hours (24 hr cytokine exposure+24 hr drug treatment) • 3-day samples: Collection at 96 hours (72 hr cytokine exposure+24 hr drug treatment) • 5-day samples: Collection at 144 hours (120 hr cytokine exposure+24 hr drug treatment, cell culture medium replenished on day-3)\n(§6) Assays Used. Collagen I (human) content was measured using enzyme-linked immunosorbent assay (ELISA) in cell culture supernatants. TGF-β1 in cell culture supernatants were measured using the MSD multiplex platform. Other inflammatory cytokines in cell culture supernatants were measured using the MSD multiplex platform."}, "IL-6": {"tested_on": "IL-6", "experiment": "In vitro tendinopathy model, IL-6 in tenocyte supernatant (MSD multiplex)", "protocol": "as §1, §2, §3, §4, §5, §6"}, "TNF-α": {"tested_on": "TNF-α", "experiment": "In vitro tendinopathy model, TNF-α in tenocyte supernatant (MSD multiplex)", "protocol": "as §1, §2, §3, §4, §5, §6"}, "[1]": {"details": "6 hr cytokine exposure + 24 hr drug treatment"}, "[2]": {"details": "1 day cytokine exposure + 24 hr drug treatment"}, "[3]": {"details": "3 days cytokine exposure + 24 hr drug treatment"}, "[4]": {"details": "5 days cytokine exposure + 24 hr drug treatment"}}, "data": [{"molecule": "COc1cc2c(c(OC)c1OC)-c1ccc(OC)c(=O)cc1[C@@H](NC(C)=O)CC2", "note": "[Treatment A, colchicine]", "values": [{"measurement": "VEGF, % of healthy level", "setting": "VEGF; [1]", "value": 263.2, "unit": "%"}, {"measurement": "VEGF, % of negative control", "setting": "VEGF; [1]", "value": 157.0, "unit": "%"}, {"measurement": "VEGF level", "setting": "VEGF; 6 hr cytokine exposure + 24 hr drug treatment, negative control 333.6 pg/mL", "value": 523.8, "unit": "pg/mL"}, {"measurement": "VEGF, % of healthy level", "setting": "VEGF; [2]", "value": 401.8, "unit": "%"}, {"measurement": "VEGF, % of negative control", "setting": "VEGF; [2]", "value": 133.4, "unit": "%"}, {"measurement": "VEGF level", "setting": "VEGF; 1 day cytokine exposure + 24 hr drug treatment, negative control 599.5 pg/mL", "value": 799.7, "unit": "pg/mL"}, {"measurement": "VEGF, % of healthy level", "setting": "VEGF; [3]", "value": 314.0, "unit": "%"}, {"measurement": "VEGF, % of negative control", "setting": "VEGF; [3]", "value": 112.6, "unit": "%"}, {"measurement": "VEGF level", "setting": "VEGF; 3 days cytokine exposure + 24 hr drug treatment, negative control 555.0 pg/mL", "value": 624.9, "unit": "pg/mL"}, {"measurement": "VEGF, % of healthy level", "setting": "VEGF; [4]", "value": 229.0, "unit": "%"}, {"measurement": "VEGF, % of negative control", "setting": "VEGF; [4]", "value": 117.9, "unit": "%"}, {"measurement": "VEGF level", "setting": "VEGF; 5 days cytokine exposure + 24 hr drug treatment, negative control 386.6 pg/mL", "value": 455.8, "unit": "pg/mL"}, {"measurement": "increase of VEGF levels compared to negative control", "setting": "VEGF; at 6 hours", "value": 57, "unit": "%"}, {"measurement": "VEGF level", "setting": "VEGF; drug alone, without inflammatory cytokines, healthy control 199.0 pg/mL", "value": 621.7, "unit": "pg/mL"}, {"measurement": "IL-6, % of healthy level", "setting": "IL-6; [1]", "value": 873.4, "unit": "%"}, {"measurement": "IL-6, % of negative control", "setting": "IL-6; [1]", "value": 185.1, "unit": "%"}, {"measurement": "IL-6 level", "setting": "IL-6; 6 hr cytokine exposure + 24 hr drug treatment, negative control 1614.8 pg/mL", "value": 2989.5, "unit": "pg/mL"}, {"measurement": "IL-6, % of healthy level", "setting": "IL-6; [2]", "value": 617.8, "unit": "%"}, {"measurement": "IL-6, % of negative control", "setting": "IL-6; [2]", "value": 122.5, "unit": "%"}, {"measurement": "IL-6 level", "setting": "IL-6; 1 day cytokine exposure + 24 hr drug treatment, negative control 1726.6 pg/mL", "value": 2114.9, "unit": "pg/mL"}, {"measurement": "IL-6, % of healthy level", "setting": "IL-6; [3]", "value": 397.3, "unit": "%"}, {"measurement": "IL-6, % of negative control", "setting": "IL-6; [3]", "value": 127.5, "unit": "%"}, {"measurement": "IL-6 level", "setting": "IL-6; 3 days cytokine exposure + 24 hr drug treatment, negative control 1067.0 pg/mL", "value": 1360.1, "unit": "pg/mL"}, {"measurement": "IL-6, % of healthy level", "setting": "IL-6; [4]", "value": 207.0, "unit": "%"}, {"measurement": "IL-6, % of negative control", "setting": "IL-6; [4]", "value": 101.7, "unit": "%"}, {"measurement": "IL-6 level", "setting": "IL-6; 5 days cytokine exposure + 24 hr drug treatment, negative control 696.6 pg/mL", "value": 708.5, "unit": "pg/mL"}, {"measurement": "IL-6 level", "setting": "IL-6; drug alone, without inflammatory cytokines, healthy control 342.3 pg/mL", "value": 73.7, "unit": "pg/mL"}, {"measurement": "TNF-α, % of healthy level", "setting": "TNF-α; [1]", "value": 926.9, "unit": "%"}, {"measurement": "TNF-α, % of negative control", "setting": "TNF-α; [1]", "value": 116.7, "unit": "%"}, {"measurement": "TNF-α level", "setting": "TNF-α; 6 hr cytokine exposure + 24 hr drug treatment, negative control 1678.4 pg/mL", "value": 1958.4, "unit": "pg/mL"}, {"measurement": "TNF-α, % of healthy level", "setting": "TNF-α; [2]", "value": 806.3, "unit": "%"}, {"measurement": "TNF-α, % of negative control", "setting": "TNF-α; [2]", "value": 129.3, "unit": "%"}, {"measurement": "TNF-α level", "setting": "TNF-α; 1 day cytokine exposure + 24 hr drug treatment, negative control 1317.2 pg/mL", "value": 1703.5, "unit": "pg/mL"}, {"measurement": "TNF-α, % of healthy level", "setting": "TNF-α; [3]", "value": 617.0, "unit": "%"}, {"measurement": "TNF-α, % of negative control", "setting": "TNF-α; [3]", "value": 135.8, "unit": "%"}, {"measurement": "TNF-α level", "setting": "TNF-α; 3 days cytokine exposure + 24 hr drug treatment, negative control 960.1 pg/mL", "value": 1303.6, "unit": "pg/mL"}, {"measurement": "TNF-α, % of healthy level", "setting": "TNF-α; [4]", "value": 424.1, "unit": "%"}, {"measurement": "TNF-α, % of negative control", "setting": "TNF-α; [4]", "value": 108.7, "unit": "%"}, {"measurement": "TNF-α level", "setting": "TNF-α; 5 days cytokine exposure + 24 hr drug treatment, negative control 824.1 pg/mL", "value": 895.9, "unit": "pg/mL"}, {"measurement": "TNF-α level", "setting": "TNF-α; drug alone, without inflammatory cytokines, healthy control 211.3 pg/mL", "value": 1.1, "unit": "pg/mL"}]}]}
